“Also recorded” adds a separate entry of the source. Like-named read-outs stand apart in the source and are kept apart here.
Key:
5-HT1A receptor = molecular target: T1, 5-HT1A receptor (Homo sapiens, UniProt P08908); conditions: cited from earlier work
T1 sequence (P08908 1-422): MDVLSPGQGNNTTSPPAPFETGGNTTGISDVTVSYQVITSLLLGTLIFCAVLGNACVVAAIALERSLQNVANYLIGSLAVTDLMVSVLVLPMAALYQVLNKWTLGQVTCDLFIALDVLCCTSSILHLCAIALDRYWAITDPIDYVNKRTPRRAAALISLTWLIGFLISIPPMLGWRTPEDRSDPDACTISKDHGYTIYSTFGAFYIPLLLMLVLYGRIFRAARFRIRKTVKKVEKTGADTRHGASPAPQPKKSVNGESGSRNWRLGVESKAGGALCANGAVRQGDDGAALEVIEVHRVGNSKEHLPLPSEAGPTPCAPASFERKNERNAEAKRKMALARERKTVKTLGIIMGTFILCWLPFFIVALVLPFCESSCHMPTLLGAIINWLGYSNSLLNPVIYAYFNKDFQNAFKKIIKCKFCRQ

SERT = molecular target: T2, SERT (Rattus norvegicus, UniProt P31652); conditions: rat cortex and hippocampus ex vivo, cited from earlier work
T2 construct: 50% occupancy at 1-3 mg/kg in rat cortex and hippocampus ex vivo; from tissue; host or cells: rat cortex and hippocampus

[1] = system: striatal c-Fos, PPD, PPE, PPT and 5-HT1AR mRNA; test: Experiment 2: real-time RT-PCR of striatal gene expression
5-HT1D = 5-HT1D (Homo sapiens, UniProt P28221); conditions: cited from earlier work
[2] = molecular target: dopamine transporter (DAT) (Homo sapiens, UniProt Q01959); conditions: read-out: Ki for DAT (dopamine reuptake site); cited from earlier work
[3] = system: 6-OHDA-lesioned hemi-parkinsonian rats; test: Experiment 1: AIMs, established LID in L-DOPA-primed hemi-parkinsonian rats; type: in vivo, Sprague-Dawley rats
5-HT2C = 5-HT2C (Homo sapiens, UniProt P28335); conditions: cited from earlier work
[4] = system: MSNs of dyskinetic 6-OHDA-lesioned rats; test: Example 2: electrophysiology of corticostriatal transmission and striatal MSN activity; type: in vivo; conditions: vilazodone co-administration with L-DOPA
Method: Rats were treated for 5 consecutive days/week, for 2 weeks. On the second day of each week, stepping tests were performed prior to drug administration, and 60 minutes post L-DOPA treatment. Behavioral assessment of LIDs was performed (30-180 min) at the end of each week. […] Electrophysiological studies were conducted to assess the impact of these treatments on corticostriatal transmission and striatal neuronal activity.

[5] = cited from earlier work
[6] = system: unilateral 6-OHDA-lesioned rats; test: Example 2: L-DOPA-induced dyskinesias (LIDs) scoring; type: in vivo, Sprague-Dawley rats; conditions: pretreatment with vilazodone 10 mg/kg or escitalopram 12.5 mg/kg before L-DOPA 5 mg/kg, 2 weeks; hydrochloride
Method: 6-OHDA-induced dopaminergic lesions: Adult male Sprague-Dawley rats were randomly assigned to groups receiving either a 6-OHDA or sham lesion. […] [[…] 2019]. […] Rats were treated for 5 consecutive days/week (Mon-Fri), for 2 weeks. […] All rats were evaluated three times per week for the presence of L-DOPA-induced dyskinesias (LIDs) (Wed-Fri) and once for the stepping test (Tue). […] Scores were given over 1 min epochs and classified as axial, limb, orolingual and locomotive. […] Arrows=inhibitory input; dashed arrows=compromised function. The severity of each LID was scored using a standard scale. Each dyskinetic behavior was given an intensity and frequency score, which were then multiplied. The average sum of the products of each LID was determined in each animal.

5-HT2A = 5-HT2A (Homo sapiens, UniProt P28223); conditions: cited from earlier work
[7] = system: L-DOPA-primed 6-OHDA-lesioned rats; test: Experiment 3: AIMs with 5-HT1AR or 5-HT1BR antagonist before Vilazodone and L-DOPA; type: in vivo, Sprague-Dawley rats
Method: In each study, the LD-primed rats received (FIG. 4A) the 5-HT1AR antagonist WAY100635 [WAY; 0 or 0.5 mg/kg, s.c.] or (FIG. 4B) the 5-HT1BR antagonist NAS [NAS; 0 or 0.3 mg/kg, s.c.]) 5 min prior to VZD (0 or 10 mg/kg, s.c.) injected 5 min prior to LD (6 mg/kg, s.c.) in a within-subjects counterbalanced design. ALO AIMs were evaluated and are shown for every 10 min for 3 h after LD administration.
All 6-OHDA-lesioned rats (n=17) were tested on the FAS prior to treatment regimens to establish baseline motor performance. Three-weeks post-surgery, all rats were primed with L-DOPA (6 mg/kg, s.c.) for 14 days.
Beginning 10 min post-treatment, a trained and blinded observer assigned a severity score (0-4) to each of the ALO AIMs based on 1 min ratings every 10 min for 3 h: 0, not present; 1, present from 1-29 s; 2, present 30-59 s; 3, present all 60 s, but interruptible by a cylinder tap; 4, present 60 s and not interruptible by a cylinder tap.

[8] = lesioned striata, VZD 0, 10 or 20 mg/kg + L-DOPA 6 mg/kg daily, day 23, 60 min post-injection
[9] = administered with either a fatty or light meal

T2 sequence (P31652 whole entry): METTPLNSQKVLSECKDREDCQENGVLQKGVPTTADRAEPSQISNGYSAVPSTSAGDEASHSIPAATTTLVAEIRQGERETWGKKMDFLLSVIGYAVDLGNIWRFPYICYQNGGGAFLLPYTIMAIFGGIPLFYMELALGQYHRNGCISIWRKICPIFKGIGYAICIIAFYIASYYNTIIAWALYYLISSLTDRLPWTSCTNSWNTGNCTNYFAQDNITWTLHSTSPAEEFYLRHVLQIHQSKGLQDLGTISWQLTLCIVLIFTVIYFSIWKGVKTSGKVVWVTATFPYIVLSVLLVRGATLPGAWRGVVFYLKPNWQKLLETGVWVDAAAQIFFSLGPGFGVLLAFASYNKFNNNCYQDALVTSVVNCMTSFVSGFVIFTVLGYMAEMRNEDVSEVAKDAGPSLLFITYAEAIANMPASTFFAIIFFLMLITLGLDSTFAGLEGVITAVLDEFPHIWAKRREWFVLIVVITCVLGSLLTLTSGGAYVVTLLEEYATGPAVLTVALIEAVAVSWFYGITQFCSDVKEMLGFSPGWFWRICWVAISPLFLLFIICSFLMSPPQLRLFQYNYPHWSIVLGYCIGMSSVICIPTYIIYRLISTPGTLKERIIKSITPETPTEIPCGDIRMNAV
Sequence of 5-HT1D (P28221 whole entry, species assumed): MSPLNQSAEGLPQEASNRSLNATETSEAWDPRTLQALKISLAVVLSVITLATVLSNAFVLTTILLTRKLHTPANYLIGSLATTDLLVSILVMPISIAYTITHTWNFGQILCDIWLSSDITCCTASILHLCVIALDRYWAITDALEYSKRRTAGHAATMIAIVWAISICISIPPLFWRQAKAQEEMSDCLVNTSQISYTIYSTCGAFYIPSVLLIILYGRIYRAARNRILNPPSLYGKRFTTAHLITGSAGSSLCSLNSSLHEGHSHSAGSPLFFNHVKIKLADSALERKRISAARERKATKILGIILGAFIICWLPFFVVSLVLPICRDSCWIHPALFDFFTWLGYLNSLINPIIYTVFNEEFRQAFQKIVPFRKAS
Sequence of dopamine transporter (DAT) (Q01959 whole entry, species assumed): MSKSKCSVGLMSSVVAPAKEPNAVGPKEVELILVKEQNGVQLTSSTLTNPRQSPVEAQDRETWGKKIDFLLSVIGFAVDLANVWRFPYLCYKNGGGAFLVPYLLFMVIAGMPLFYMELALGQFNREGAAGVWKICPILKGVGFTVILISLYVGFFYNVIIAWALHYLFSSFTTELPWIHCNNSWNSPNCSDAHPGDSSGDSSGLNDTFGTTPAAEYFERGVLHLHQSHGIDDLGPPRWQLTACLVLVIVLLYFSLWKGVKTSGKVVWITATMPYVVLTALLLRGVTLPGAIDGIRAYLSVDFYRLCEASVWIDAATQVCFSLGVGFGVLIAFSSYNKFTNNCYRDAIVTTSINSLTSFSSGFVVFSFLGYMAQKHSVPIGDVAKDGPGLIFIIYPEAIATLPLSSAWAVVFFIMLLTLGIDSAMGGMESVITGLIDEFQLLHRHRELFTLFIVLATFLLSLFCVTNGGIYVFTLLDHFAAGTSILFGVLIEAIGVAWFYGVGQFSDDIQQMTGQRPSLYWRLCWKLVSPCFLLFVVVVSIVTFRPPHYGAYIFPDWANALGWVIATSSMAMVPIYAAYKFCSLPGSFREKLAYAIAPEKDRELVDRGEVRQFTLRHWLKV
Sequence of 5-HT2A (P28223 whole entry, species assumed): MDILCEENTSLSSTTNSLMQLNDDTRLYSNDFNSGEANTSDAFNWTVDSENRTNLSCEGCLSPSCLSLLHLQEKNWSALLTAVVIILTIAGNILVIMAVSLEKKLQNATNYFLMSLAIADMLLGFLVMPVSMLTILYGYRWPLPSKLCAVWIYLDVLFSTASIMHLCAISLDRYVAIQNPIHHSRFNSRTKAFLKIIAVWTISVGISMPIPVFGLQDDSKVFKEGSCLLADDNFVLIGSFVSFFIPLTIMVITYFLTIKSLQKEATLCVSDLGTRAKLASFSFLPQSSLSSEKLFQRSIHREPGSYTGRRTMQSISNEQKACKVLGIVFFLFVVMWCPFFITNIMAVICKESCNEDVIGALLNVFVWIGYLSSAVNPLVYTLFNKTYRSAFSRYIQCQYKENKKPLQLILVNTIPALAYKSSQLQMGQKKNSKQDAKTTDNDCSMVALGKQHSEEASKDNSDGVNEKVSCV
Sequence of 5-HT2C (P28335 33-458, species assumed): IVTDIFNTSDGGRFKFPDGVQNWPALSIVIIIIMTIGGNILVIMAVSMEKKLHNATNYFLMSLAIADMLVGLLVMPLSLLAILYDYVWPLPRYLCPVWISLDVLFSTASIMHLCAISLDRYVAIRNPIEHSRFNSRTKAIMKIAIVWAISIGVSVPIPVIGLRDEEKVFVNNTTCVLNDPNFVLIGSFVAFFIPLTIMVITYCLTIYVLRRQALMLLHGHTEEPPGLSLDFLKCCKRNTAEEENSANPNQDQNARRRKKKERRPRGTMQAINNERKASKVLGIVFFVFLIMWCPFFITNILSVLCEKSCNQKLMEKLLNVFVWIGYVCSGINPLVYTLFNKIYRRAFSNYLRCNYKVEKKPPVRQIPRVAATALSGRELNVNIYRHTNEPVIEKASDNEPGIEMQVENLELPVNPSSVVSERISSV

What does the source list for `Cl.N#Cc1ccc2[nH]cc(CCCCN3CCN(c4ccc5oc(C(N)=O)cc5c4)CC3)c2c1` [Vilazodone, 5-{4-[4-(5-cyano-3-indolyl)-butyl]-1-piperazinyl}-benzofuran-2-carboxamide hydrochloride]?
5-HT1A receptor IA (5-HT1A receptor): 60-70%; SERT occupancy (SERT; 10 mg/kg): 100%; SERT occupancy (SERT; 1-3 mg/kg): 50%; striatal PPT mRNA ([1]; FIG. 6B): significantly reduced it; striatal 5-HT1AR mRNA ([1]; day 23): did not affect striatal 5-HT1AR mRNA; striatal PPE mRNA ([1]; lesioned striata, L-DOPA 6 mg/kg, Vilazodone 20 mg/kg): modestly, though significantly reduced; striatal PPD mRNA [1, 8]: dose-dependently attenuated; striatal c-Fos mRNA [1, 8]: diminished; affinity for 5-HT1D (5-HT1D): negligible affinity; Ki [2]: 37 nM; anti-LID efficacy, high versus low dose ([3]; 20 mg/kg vs 10 mg/kg, initially, dissipated after the first week): greater anti-LID efficacy than the lower dose; ALO AIMs, established LID ([3]; VZD 10 or 20 mg/kg s.c. 5 min prior to L-DOPA 6 mg/kg, vs Vilazodone (0 mg/kg)+L-DOPA (6 mg/kg), from first day throughout treatment): dramatically reduced AIMs; side effects, like 5-HT syndrome ([3]; chronic Vilazodone + L-DOPA in rats, any time point): weren't observed at any time point; reduction of development and expression of LID compared with Amantadine ([3]; validated rodent model): more effective than Amantadine; affinity for 5-HT2C (5-HT2C): negligible affinity; spike probability and onset latency [4]: normalizes spike probability and onset latency; AUC increase [5, 9]: 64%-85%; Cmax increase [5, 9]: 147%-160%; bioavailability ([5]; under fed conditions): 72%; LIDs score / severity [6]: most significant effect on attenuating LIDs; also recorded: significantly reduced LIDs; affinity for 5-HT2A (5-HT2A): negligible affinity; ALO AIMs, 5-HT1BR study ([7]; NAS-181 0 or 3.0 mg/kg, then VZD 0 or 10 mg/kg, then L-DOPA 6 mg/kg, s.c.): significantly reduced ALO AIMs; LID duration, time course ([7]; VZD 10 mg/kg + L-DOPA 6 mg/kg): little effect on LID duration; peak dyskinesia, time course ([7]; VZD 10 mg/kg + L-DOPA 6 mg/kg): reduced peak dyskinesia; summed ALO AIMs, 5-HT1AR study ([7]; WAY100635 0 or 0.5 mg/kg, then VZD 0 or 10 mg/kg, then L-DOPA 6 mg/kg, s.c.): significantly reduced ALO AIMs

Reference: patent publication US20210393621A1, “COMBINATION SEROTONIN SPECIFIC REUPTAKE INHIBITOR AND SEROTONIN 1A RECEPTOR PARTIAL AGONIST FOR REDUCING L-DOPA-INDUCED DYSKINESIA” (The Research Foundation for The State University of new York, priority 2018, published 2021)
